# Test results from BindingDB's records for doi:10.1124/jpet.104.068098 (University of Kentucky, 2004).
# pKi: −log10 of the molar value.
# What was measured:
# [1] = molecular target: Sodium-dependent serotonin transporter (Homo sapiens, UniProt P31645)
# [2] = molecular target: Sodium-dependent noradrenaline transporter (Homo sapiens, UniProt P23975)
# [3] = molecular target: Sodium-dependent dopamine transporter (Homo sapiens, UniProt Q01959)
# Sodium-dependent dopamine transporter, sequence (Q01959 whole entry): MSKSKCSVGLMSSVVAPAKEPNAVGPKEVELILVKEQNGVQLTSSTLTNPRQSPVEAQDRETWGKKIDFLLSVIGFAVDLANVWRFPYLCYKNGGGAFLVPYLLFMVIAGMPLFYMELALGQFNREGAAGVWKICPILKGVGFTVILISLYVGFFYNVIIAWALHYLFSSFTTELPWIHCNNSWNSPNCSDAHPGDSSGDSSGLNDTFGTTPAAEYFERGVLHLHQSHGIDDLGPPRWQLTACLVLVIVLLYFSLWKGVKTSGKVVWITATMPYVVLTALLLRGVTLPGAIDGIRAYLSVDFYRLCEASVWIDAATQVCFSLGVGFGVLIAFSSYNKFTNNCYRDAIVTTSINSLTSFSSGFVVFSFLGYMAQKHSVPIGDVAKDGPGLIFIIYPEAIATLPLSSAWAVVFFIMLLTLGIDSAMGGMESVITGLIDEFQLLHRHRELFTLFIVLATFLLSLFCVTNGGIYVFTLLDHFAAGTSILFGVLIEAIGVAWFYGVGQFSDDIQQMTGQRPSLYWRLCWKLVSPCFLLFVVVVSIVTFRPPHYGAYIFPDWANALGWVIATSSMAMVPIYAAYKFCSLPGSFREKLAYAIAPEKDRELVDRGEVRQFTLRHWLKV
# Sodium-dependent noradrenaline transporter, sequence (P23975 whole entry): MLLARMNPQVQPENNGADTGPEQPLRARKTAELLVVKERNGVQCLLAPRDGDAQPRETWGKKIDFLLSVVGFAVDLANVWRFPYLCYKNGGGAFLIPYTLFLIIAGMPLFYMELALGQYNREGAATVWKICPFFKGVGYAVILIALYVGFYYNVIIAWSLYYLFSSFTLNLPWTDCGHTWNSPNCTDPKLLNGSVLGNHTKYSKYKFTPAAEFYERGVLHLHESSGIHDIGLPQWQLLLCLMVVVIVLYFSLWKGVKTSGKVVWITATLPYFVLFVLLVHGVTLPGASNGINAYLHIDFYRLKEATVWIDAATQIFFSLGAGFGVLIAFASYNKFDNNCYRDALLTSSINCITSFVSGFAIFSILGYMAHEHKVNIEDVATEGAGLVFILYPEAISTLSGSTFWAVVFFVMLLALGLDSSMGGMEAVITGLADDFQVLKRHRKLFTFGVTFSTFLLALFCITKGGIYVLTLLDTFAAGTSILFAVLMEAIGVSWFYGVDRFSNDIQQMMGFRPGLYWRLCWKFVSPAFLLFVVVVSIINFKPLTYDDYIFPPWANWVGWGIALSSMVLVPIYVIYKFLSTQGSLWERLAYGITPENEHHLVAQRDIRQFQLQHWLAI
# Sodium-dependent serotonin transporter, sequence (P31645 whole entry): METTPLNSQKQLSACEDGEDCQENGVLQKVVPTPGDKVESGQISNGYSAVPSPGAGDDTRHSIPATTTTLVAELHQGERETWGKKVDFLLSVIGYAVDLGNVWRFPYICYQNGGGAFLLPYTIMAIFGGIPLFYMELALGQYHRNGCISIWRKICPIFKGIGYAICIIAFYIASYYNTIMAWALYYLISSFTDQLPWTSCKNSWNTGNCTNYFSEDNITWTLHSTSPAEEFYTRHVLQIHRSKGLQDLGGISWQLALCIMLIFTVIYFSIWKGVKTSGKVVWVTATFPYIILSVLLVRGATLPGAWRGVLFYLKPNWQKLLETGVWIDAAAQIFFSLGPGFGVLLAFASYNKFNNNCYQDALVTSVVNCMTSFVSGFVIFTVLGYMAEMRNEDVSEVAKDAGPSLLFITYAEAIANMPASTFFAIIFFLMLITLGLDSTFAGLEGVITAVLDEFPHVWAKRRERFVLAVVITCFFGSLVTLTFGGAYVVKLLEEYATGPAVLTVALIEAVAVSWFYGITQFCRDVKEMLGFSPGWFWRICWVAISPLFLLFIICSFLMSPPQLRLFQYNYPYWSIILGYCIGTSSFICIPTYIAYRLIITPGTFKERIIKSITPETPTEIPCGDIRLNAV
SMILES,pKi [1],pKi [2],pKi [3]
CN1[C@H](/C=C/c2ccccc2)CCC[C@@H]1/C=C/c1ccccc1,5.72,6.56,7.37
CN1[C@@H](C[C@@H](O)c2ccccc2)CCC[C@H]1CC(=O)c1ccccc1 [Lobeline],< 5.00,5.73,5.27
CN1[C@@H](CCc2ccccc2)CCC[C@H]1CCc1ccccc1,6.28,5.74,7.01
